Assay results published in patent US20160039796A1, “BARETTIN AND DERIVATIVES THEREOF FOR MEDICAL USE, IN PARTICULAR FOR THE TREATMENT OF DISEASES RELATED TO OXIDATIVE STRESS OR INFLAMMATION, AND FOR PRESERVING OR WASHING ORGANS” (ABC Bioscience AS, priority 2013, published 2016).

How the values were obtained:
[1] = FRAP (ferric reducing antioxidant power) assay; type: biochemical; settings: for FRAP dose-response: FIG. 2; for FRAP value: 30 μg/ml
Experimental: The inventors used the biochemical assay FRAP (ferric reducing antioxidant power) to obtain an indication of the antioxidant potential of MBC-005 (isolated brominated) and MBC-007 (synthetic de-brominated).
Reagents were prepared according to benzie, I.F.F. et al. Analytical Biochemistry 1996, 239, 70-76 and carried out in a DTX 880 Multimode Detector (Beckman Coulter, Calif., USA) at 595 nm. Trolox (Sigma, 238813) was used to prepare the standard curve (0-250 μM; working concentration). The FRAP reagent (TPTZ (2,4,6-Tris(2-pyridyl)-s-triazine): Fluka, 93285; Fe: Merck 103943) was prepared daily. The assay was carried out in clear 96-well plates, with 20 μl sample and 150 μl FRAP-reagent added to each well in duplicates. Water was used as a blank. Samples were incubated at 37° C. for 30 min before reading the plate. The blank was subtracted from each sample and a standard curve was created from the average absorbance of the duplicated Trolox samples. The equation generated from the standard curve was used to calculate the trolox equivalents (TE) from each sample. Results were expressed as μM TE.

[2] = ORAC (oxygen radical absorbance capacity) assay; type: biochemical; settings: for ORAC dose-response: FIG. 3
Experimental: The inventors used the biochemical assay ORAC (oxygen radical absorbance capacity) to obtain an indication of the antioxidant potential of MBC-005 (isolated brominated) and MBC-007 (synthetic de-brominated).
The method has been modified from Huang, D. et al., Journal of Agricultural and Food Chemistry 2002, 50, 4437-4444. The assay was carried out in black 96-well plates (Nunc 7350004) and using a Victor3 Plate Reader (Perkin Elmer, Mass., USA) at 37° C. (exitation 486 nm, emission 520 nm). All reagents were dissolved in 75 mM phosphate buffer (PB) (pH 7,4). Different concentrations of the MBC-005 and MBC-007 preparations were added in duplicates followed by addition of 125 μl fluorescein (Fluka, 46960) (52 nM final concentration). After a 15 minute incubation at 37° C., 60 μl AAPH (2,2′-Azobis(2-methylpropionamidine) dihydrochloride; Sigma-Aldrich, 440914) was quickly added to each sample (44 mM final concentration). Fluorescence was recorded 25 times at 37° C. with a 70 sec delay between repeats. Trolox (0-25 μM working concentration) was included in each run to make a standard curve. PB was used as a blank and for the 0 μM Trolox sample. Area under the curve (AUC) was calculated by subtracting the AUCBlank values. A standard curve was created using the Trolox values and Trolox equivalents of the samples were calculated from the resulting equation. Results were expressed as μM TE.

HepG2 cells [3] = assay: cellular lipid peroxidation antioxidant activity (CLPAA) assay; type: cell-based; settings: for activity in CLPAA assay (lipid peroxidation in HepG2 cells): FIG. 4, normalized to positive control CumOOH
Experimental: (§1) HepG2 cells were grown in MEM Earle's medium (F0325) supplemented with gentamycin (10 μg/ml, A2712), non-essential amino acids (1%, K0293), sodium pyruvate (1 mM, L0473), L-alanyl-L-glutamine (2 mM, K0302) and fetal bovine serum (10%, S0115) and incubated at 37° C. with 5% CO2. Media and supplements were from Biochrom (Berlin, Germany).
The inventors used the cellular lipid peroxidation antioxidant activity (CLPAA) assay. This assays measures the intracellular ROS (reactive oxygen species) and membrane antioxidant activity, respectively. The brominated barettin molecule gave a 55% reduction in oxidation compared to the control in the CLPAA assay.
Approximately 80.000 HepG2 cells per well were seeded in black 96 well plates with clear bottom (#3603, Corning, N.Y., USA) and incubated overnight. The cells were labelled with C11-BODIPY (#D3861, Invitrogen, Eugene, Oreg.) for 30 min and incubated for 1 h with various concentrations of the test compounds. Cumene hydroperoxide (cumOOH, #247502, Sigma-Aldrich, St. Louis, Mo.) was added to initiate lipid peroxidation and the plate was immediately placed in a Victor3 Plate Reader (Perkin Elmer, Mass., USA). Both red (590/7 nm (exitation), 632/45 nm (emission)) and green (485/14 nm, 520/10 nm) fluorescence was recorded during ˜1 h. Cells were washed with PBS between additions of new reagents. Total reaction volume was 100 μl. All incubations were carried out at 37° C. with 5% CO2. Percent inhibition was calculated relative to the positive control (cumOOH without test compound).

HepG2 cells [4] = assay: cytotoxicity assay, HepG2 cells (CellTiter 96 AQueous One Solution); type: cell-based; settings: 2 h and 24 h exposure, concentrations tested (FIG. 6)
Experimental: (§2) Cytotoxicity was tested on HepG2 and MRC-5 cells (normal lung fibroblasts) for 2 h (HepG2) and 24 h (HepG2 and MRC-5) using the CellTiter 96 AQueous One Solution Assay (Promega). MBC-005 and MBC-007 were not toxic to the HepG2 or the MRC5 cells in the concentrations tested (FIG. 6 and FIG. 7). In the CLPAA assays the cells were exposed to the test compounds for 1 h before washed. Thus a 2 h exposure would detect whether the MBC-compounds are likely to cause cell death and false results in the CLPAA assays. MRC5 and HepG2 cells were also exposed to the barettin compounds for 24 h. This would reveal more long-term damage or whether any toxicity was caused by something other than membrane lysis. […] This was above the concentrations used in the CLPAA assay.
as §1, with “HepG2 and MRC-5” for “HepG2”
(§3) Cytotoxicity was studied in HepG2 and MRC-5 cells (normal human lung fibroblasts) for 2 h (HepG2) and 24 h (HepG2 and MRC-5). […] Absorbance was measured at 485 nm in a DTX 880 Multimode Detector. Results were calculated as % survival compared to a positive control.

[5] = system: MRC-5 cells (normal human lung fibroblasts); assay: cytotoxicity assay, MRC-5 cells (CellTiter 96 AQueous One Solution); type: cell-based; settings: 24 h exposure, concentrations tested (FIG. 7)
Experimental: as §2
as §1, with “HepG2 and MRC-5” for “HepG2”
as §3

[6] = system: IL-6 release from THP-1 cells; assay: LPS-induced release of IL-6 from THP-1 cells (ELISA); type: cell-based, human
Experimental: Monocytes are well-recognised to respond to inflammatory stimuli by releasing a range of cytokines; IL-6 is a highly expressed pro-inflammatory cytokine in activated monocytes. The principle of this assay was to compare the effect of pre-incubating human cells from a monocyte-derived cell line (THP-1) with a known anti-inflammatory drug (dexamethasone; Dex), or a range of concentrations of barettin, on IL-6 generation in response to the inflammatory stimulus, lipopolysaccharide (LPS).
THP-1 cells (Health Protection Agency, Porton Down, UK) were maintained at 37° C. with 5% CO2 in RPMI 1640 containing 10% foetal bovine serum, 2 mM L-glutamine with 100 IU/ml penicillin and 100 μg/ml streptomycin (PAA laboratories Ltd, Yeovil, UK). The cells were grown in suspension and then plated out in 24-well plates at 2×10^5 cells per well.
Treatments: • a. vehicle control (RPMI 1640+0.5% DMSO) • b. 10 μM Dex for 24 h • c. 10 μg/ml LPS for 24 h • d. Pre-treated with 10 μM Dex for 30 min followed by 10 μg/ml lipopolysaccharide LPS for 24 h • e. Pre-treated with barettin at 1, 3, 10, 30 and 100 μg/ml for 30 min followed by 10 μg/ml LPS for 24 h
The concentration of Dex and barettin remained consistent throughout the incubation period; the final DMSO concentration was 0.5%. Cells were incubated at 37° C. and 5% CO2 for 24 hours.
Following incubations, cells and supernatants were harvested into 1.5 ml Eppendorf® tubes and supernatants were cleared of cells and debris by centrifugation at 300 g for 3 min at room temperature. Supernatants were transferred to clean 1.5 ml Eppendorf® tubes and stored at −80° C.
IL-6 expression was measured by ELISA (eBioscience, human IL-6 Platinum ELISA) according to the manufacturer's instructions. Data were collected using a VarioSkan Flash plate reader and Skanit software v2.4.3 (Thermo Fisher Scientific, Basingstoke, UK).

[7] = cytotoxicity of isolated barettin over 72 h (data not shown); type: cell-based
Source text: MBC-005 and MBC-007 were not toxic to the HepG2 or the MRC5 cells in the concentrations tested (FIG. 6 and FIG. 7). […] This would reveal more long-term damage or whether any toxicity was caused by something other than membrane lysis. […] This was above the concentrations used in the CLPAA assay.

[8] = system: tumor necrosis factor-alpha (TNF-α) in LPS induced monocytes (THP-1 cells); assay: inhibition of TNF-α secretion in LPS induced monocytes (ELISA); type: cell-based, human; settings: 75 and 100 μg/ml, LPS induced THP-1 cells
Experimental: (§4) Tumor necrosis factor-alpha (TNF-α) and Interleukin-1 beta (IL-1β) are both cytokines (small cell-signalling protein molecules) linked to inflammatory responses. Thus, the present inventors have tested the ability of isolated barettin (designated MCB-011 in the present experiment) to inhibit the secretion of these cytokines in LPS induces monocytes (THP-1 cells).
(§5) THP-1 cells were grown in RPMI-1640 supplemented with gentamycin and FBS and incubated at 37° C. with 5% CO2. To differentiate the monocytes into macrophages, 50 ng/ml PMA was added. Approximately 10^5 cells supplemented with 50 ng/ml PMA were seeded in 96 well plates and incubated at 37° C., 5% CO2 for 48 hours. The cells were controlled using a microscope after 24 h to make sure they had started to differentiate. After 48 h the cells were washed and new RPMI (w/o PMA) added before another 24 h incubation.
(§6) The cells were added 90 μl fresh medium and 10 μl test compound at various concentrations in duplex. After incubation for 1 h, 1 ng/ml LPS was added to all samples except negative controls. Incubation for 6 h at 37° C. followed. The reactions were stopped by freezing the plates at −80° C. immediately after incubation. One day prior to ELISA testing MaxiSorp 96F-well plates were coated with 2 μg/ml capture antibody (Ab) and placed in the refrigerator overnight. […] Results were read at DTX880 at 405 nm.

[9] = system: Interleukin-1 beta (IL-1β) in LPS induced monocytes (THP-1 cells); assay: inhibition of IL-1β secretion in LPS induced monocytes (ELISA); type: cell-based, human; settings: 75 and 100 μg/ml, LPS induced THP-1 cells
Experimental: as §4, §5, §6

N=C(N)NCCC[C@@H]1NC(=O)/C(=C/c2c[nH]c3ccccc23)NC1=O [MBC-007]
FRAP dose-response [1]: dose-response activity was observed | ORAC dose-response [2]: dose-response activity was observed | activity in CLPAA assay (lipid peroxidation in HepG2 cells) (HepG2 cells [3]; listed as de-brominated synthetic analogue): did not show any significant activity | cytotoxicity to HepG2 cells (HepG2 cells [4]): not toxic | cytotoxicity to MRC5 cells [5]: not toxic

O=c1cc(-c2ccc(O)c(O)c2)oc2cc(O)cc(O)c12 [luteolin, reference compound]
FRAP value [1]: 151 μM TE

N=C(N)NCCCC1NC(=O)/C(=C/c2c[nH]c3cc(Br)ccc23)NC1=O (stereo not drawn) [MBC-005, cyclo-[(6-bromo-8-en-tryptophan)-arginine]]
FRAP value [1]: 77 μM TE | FRAP dose-response [1]: dose-response activity was observed | ORAC value (Trolox equivalents) ([2]; 30 μg/ml (71.6 μM)): 5.5 μM TE | ORAC dose-response [2]: dose-response activity was observed | activity in CLPAA assay (lipid peroxidation in HepG2 cells) (HepG2 cells [3]): acts in a dose-dependent manner to reduce lipid peroxidation | reduction in oxidation compared to the control (HepG2 cells [3]; HepG2 cells, cumOOH-induced lipid peroxidation): 55% | effect on LPS-induced generation of IL-6, significance ([6]; 1 μg/ml (~2.4 μN)): significant | anti-inflammatory effect versus cytotoxicity ([6]; 30 μg/ml and below): genuine anti-inflammatory effect | effect on LPS-induced generation of IL-6 ([6]; 1-100 μg/ml, 30 min pre-treatment, 10 μg/ml LPS 24 h): clear concentration-dependent effect | IL-6 expression with compound alone (no LPS) ([6]; pilot data, THP-1 cells, compound alone): did not result in the up-regulation of IL-6 expression | cytotoxicity to HepG2 cells (HepG2 cells [4]): not toxic | cytotoxicity to MRC5 cells [5]: not toxic | concentration at which cytotoxicity appears [7]: ≥ 100 µg/mL

N=C(N)NCCC[C@@H]1NC(=O)/C(=C/c2c[nH]c3cc(Br)ccc23)NC1=O [MBC-011, Barettin]
inhibition of TNF-α [8]: significant inhibition | inhibition of IL-1β [9]: significant inhibition
